# Like-named read-outs stand apart in the source and are kept apart here. Marks after values point to notes of the source that are not given here.
# Columns and labels:
# Assay in all cases: Six-well plate screening test
# Type in all cases: cell-based
# [1] = tested on: Cladosporium cladosporioides
# Trichoderma virens = tested on: Trichoderma virens
# Alternaria alternata = tested on: Alternaria alternata
# Penicillium funiculosum = tested on: Penicillium funiculosum
# Aureobasidium pullulans = tested on: Aureobasidium pullulans
# Aspergillus niger = tested on: Aspergillus niger
# Stachybotrus charatrum = tested on: Stachybotrus charatrum
# [2] = 10 days of incubation at room temperature
# [3] = single moldicide or ACQ-C alone, incubation period 14 days
Compound,"Minimum Inhibitory Concentrations (MIC) [1, 2]",Minimum Inhibitory Concentrations (MIC) (Trichoderma virens; [2]) [mg/kg],Minimum Inhibitory Concentrations (MIC) (Alternaria alternata; [2]) [mg/kg],Minimum Inhibitory Concentrations (MIC) (Penicillium funiculosum; [2]) [mg/kg],Minimum Inhibitory Concentrations (MIC) (Aureobasidium pullulans; [2]) [mg/kg],Minimum Inhibitory Concentrations (MIC) (Aspergillus niger; [2]) [mg/kg],Minimum Inhibitory Concentrations (MIC) (Stachybotrus charatrum; [2]) [mg/kg],Minimum Inhibitory Concentrations (MIC) (Stachybotrus charatrum) [mg/kg],Minimum Inhibitory Concentrations (MIC) [1] [mg/kg],Minimum Inhibitory Concentrations (MIC) (Trichoderma virens) [mg/kg],Minimum Inhibitory Concentrations (MIC) (Alternaria alternata) [mg/kg],Minimum Inhibitory Concentrations (MIC) (Penicillium funiculosum) [mg/kg],Minimum Inhibitory Concentrations (MIC) (Aureobasidium pullulans) [mg/kg],Minimum Inhibitory Concentrations (MIC) (Aspergillus niger) [mg/kg],"MIC [1, 3] [mg/kg]",MIC (Trichoderma virens; [3]) [mg/kg],MIC (Alternaria alternata; [3]) [mg/kg],MIC (Penicillium funiculosum; [3]) [mg/kg],MIC (Aureobasidium pullulans; [3]) [mg/kg]
"O=[N+]([O-])c1cc(C(F)(F)F)c(Cl)c([N+](=O)[O-])c1Nc1ncc(C(F)(F)F)cc1Cl [Fluazinam, 3-chloro-N-(3-chloro-5-trifluoromethyl-2-pyridyl)-alpha,alpha,alpha-trifluoro-2,6-dinitro-p-toluidine]",1 mg/kg,>100,10,10,1,1,–,–,–,–,–,–,–,–,–,–,–,–,–
"CC(C)NC(=O)N1CC(=O)N(c2cc(Cl)cc(Cl)c2)C1=O [Iprodione, 3-(3,5-dichlorophenyl)-N-isopropyl-2,4-dioxoimidazolidine-1-carboxamide]",>101 mg/kg,>100,100,>102,>100,10,–,–,–,–,–,–,–,–,–,–,–,–,–
"COC(=O)Nc1nc2ccccc2[nH]1 [Carbendazim, methyl benzimidazol-2-ylcarbamate]",1^a mg/kg,1,>100,1,0.1,5,–,–,–,–,–,–,–,–,–,–,–,–,–
"CC(C)(C)C(O)C(Oc1ccc(Cl)cc1)n1cncn1 (stereo not drawn) [BAYTAN, (1RS,2RS; 1RS,2SR)-1-(4-chlorophenoxy)-3,3-dimethyl-1-(1H-1,2,4-triazol-1-yl)butan-2-ol]",50 mg/kg,>100,>100,>100,50,>100,>100,–,–,–,–,–,–,–,–,–,–,–,–
"CO/C=C(/C(=O)OC)c1ccccc1Oc1cc(Oc2ccccc2C#N)ncn1 [Azoxystrobin, methyl (E)-2-{2-[6-(2-cyanophenoxy)pyrimidin-4-yloxy]phenyl}-3-methoxyacrylate]",>100 mg/kg,>100,>100,>100,>100,>100,25,–,–,–,–,–,–,–,–,–,–,–,–
"S=C([S-])NCCNC(=S)[S-].[Na+].[Na+] [Nabam, disodium ethylenebis(dithiocarbamate)]",100 mg/kg,100,>100,>100,100,100,100,–,–,–,–,–,–,–,–,–,–,–,–
"CCCCNC(=O)n1c(NC(=O)OC)nc2ccccc21 [Benomyl, methyl 1-(butylcarbamoyl)benzimidazol-2-ylcarbamate]",1^a mg/kg,1,>100,1,100,10,–,–,–,–,–,–,–,–,–,–,–,–,–
"CC(Cc1ccc(C(C)(C)C)cc1)CN1C[C@@H](C)O[C@@H](C)C1 (mixture of isomers) [Fenpropimorph, (RS)-cis-4-[3-(4-tert-butylphenyl)-2-methylpropyl]-2,6-dimethylmorpholine]",50 mg/kg,10,50,>100,10,>100,10,–,–,–,–,–,–,–,–,–,–,–,–
bis(8-hydroxyquinolinium) sulfate [8-hydroxyquinoline],–,–,–,–,–,–,–,10,25,25,25,25,50,100,–,–,–,–,–
"CC1(c2ccc(Oc3ccccc3)cc2)OC(=O)N(Nc2ccccc2)C1=O (racemic) [FAMOXATE, (RS)-3-anilino-5-methyl-5-(4-phenoxyphenyl)-1,3-oxazolidine-2,4-dione]",>100 mg/kg,>100,>100,>100,>100,>100,>100,–,–,–,–,–,–,–,–,–,–,–,–
"N#Cc1c[nH]cc1-c1cccc(Cl)c1Cl [Fenpiclonil, 4-(2,3-dichlorophenyl)-1H-pyrrole-3-carbonitrile]",10 mg/kg,>100,50,>100,50,1,10,–,–,–,–,–,–,–,–,–,–,–,–
"N#CSCSc1nc2ccccc2s1 [TCMBT, 2-(thiocyanomethylthio)benzothiazole]",30 mg/kg,3,300,30,300,–,3,–,–,–,–,–,–,–,30,3,300,30,300
